Data published in patent US20250074955A1, “MODIFIED LOW MOLECULAR WEIGHT GLUTENIN SUBUNIT AND USES THEREOF” (Ukko Inc., priority 2022, published 2025).
Where no end group is shown, it is not given here.

Tests used:
HLA-DQ2.5 = HLA-DQ2.5 (Homo sapiens, UniProt P01909+P01920, A45G/A70V/D89A/E106A/E77G/E98D/H199R/L107V/N214S/P84L/P87L/T103K/T109R/T172A/T60S/V78E/V99I/Y58L/Y62S/Y69I/Y79F); test: MHC class II binding competition assay with radiolabeled probe peptide; details: competition with MHC class II bound radiolabeled probe peptide, purified MHC, 2-4 days incubation
HLA-DQ8 = HLA-DQ8 (Homo sapiens, UniProt P01909+P01920, A209T/A45G/C70Q/D89A/DUP78-78/E183D/E77G/F237L/G63E/H199R/I129T/K197E/L178F/L74F/L98V/Q57E/Q76R/S185I/S97I/T217I/T49S/V73L/Y58L); test: as above; details: competition with MHC class II bound radiolabeled probe peptide, purified MHC, 2-4 days incubation
HLA-DQ2.2 = HLA-DQ2.2 (Homo sapiens, UniProt P01909+P01920, A45G/A70V/C70K/D167G/D89A/E106A/E183D/E77G/E98D/F237L/F77L/G63E/H199R/I129T/K197E/L107V/L178F/L74F/N214S/P84L/P87L/Q57E/Q76R/R75H/S185I/S97I/T103K/T109R/T172A/T60S/V73L/V78E/V99I/Y48F/Y58L/Y62S/Y69I/Y79F); test: as above; details: competition with MHC class II bound radiolabeled probe peptide, purified MHC, 2-4 days incubation
HLA-DQ7.5 = target: T1, HLA-DQ7.5 (Homo sapiens, UniProt P01909+P01920); test: as above; details: competition with MHC class II bound radiolabeled probe peptide, purified MHC, 2-4 days incubation
T1 construct: made in house
Experimental: In-vitro testing of modified gluten peptides was performed by a Major histocompatibility complex (MHC class II) binding assay (Sidney J. et. al. Current protocols in immunology 100.1 (2013)). Briefly, competition assays using different concentrations of WT and modified low molecular weight glutenin subunit (LMW-GS) peptides were conducted by diluting the peptides in NP40 buffer, and incubation for 2-4 days with purified MHC and a radiolabeled known MHC binding peptide (peptide probe). MHC class II molecules were purified by affinity chromatography, and peptides were radiolabeled using the chloramine T method. After the incubation period, the bound and unbound radiolabeled species were separated, and their relative amounts were determined by either size-exclusion gel-filtration chromatography or monoclonal antibody capture of MHC. The percentage of bound radioactivity was then determined. For each modified peptide, IC50 of WT and modified peptide were calculated. The known gluten peptide epitopes were analyzed for MHC binding as a positive control, both in the non-deamidated and in the deamidated form.
Tables I and II list the measured IC50 values from competition assays between the specified peptides and an MHC class II bound probe peptide.

HLA-DQ8 (human) = test: competition with radiolabeled probe peptide, purified MHC class II
HLA-DQ2.5 (human) = test: as above
HLA-DQ2.2 (human) = test: as above

Row | Molecule | IC50 (HLA-DQ2.5) [µM] | IC50 (HLA-DQ8) [µM] | IC50 (HLA-DQ2.2) [µM] | IC50 (HLA-DQ7.5) [µM] | IC50 (HLA-DQ8 (human)) [µM] | IC50 (HLA-DQ2.5 (human)) [µM] | IC50 (HLA-DQ2.2 (human)) [µM]
1 | QGPPFSKQTQPVIPQ [SEQ ID NO: 72] | > 40 | > 40 | > 40 | > 40 |  |  | 
2 | QPPSSEQQHSPPSQQ [SEQ ID NO: 81] | > 40 | 31.9 | 39.8 | > 40 |  |  | 
3 | QPSFSRQQKQPQSQQ [SEQ ID NO: 86] | > 40 | > 40 | > 40 | > 40 |  |  | 
4 | QQPAFSRQHQPSLPQ [SEQ ID NO: 73] |  |  |  | > 40 |  |  | 
5 | QQPPDSHQEHSPGPQ [SEQ ID NO: 187] | > 40 | > 40 | > 40 | > 40 |  |  | 
6 | QQPPFPRQHQQFPQQ [SEQ ID NO: 74] | > 40 | > 40 | > 40 | > 40 |  |  | 
7 | QQPPFSKQEQQQPIL [SEQ ID NO: 71] | > 40 | 29.8 | > 40 | > 40 |  |  | 
8 | QQSPFPEQEQQHQQL [SEQ ID NO: 183] | 32.4 | 39.9 | > 40 | > 40 |  |  | 
9 | QQSPFSRQEKSPFSQ [SEQ ID NO: 78] | > 40 | > 40 | > 40 | > 40 |  |  | 
10 | QQPPFWQHQPPFSQQ [… (SEQ ID NO: 76)] |  |  |  |  |  | 37.4 | 
11 | GPPFSKQTEPVISQQ [… (SEQ ID NO: 186)] |  |  |  |  | 38.2 |  | 
12 | QQSPFPEQEQQHQQL [… (SEQ ID NO: 183)] |  |  |  |  | 39.9 | 32.4 | 
13 | QPFFSHQQRSGFSQQ [… (SEQ ID NO: 83)] |  |  |  |  | 39.2 |  | 

Now from value to molecule:

Row | IC50 (HLA-DQ2.5) [µM] | IC50 (HLA-DQ8) [µM] | IC50 (HLA-DQ2.2) [µM] | IC50 (HLA-DQ7.5) [µM] | IC50 (HLA-DQ8 (human)) [µM] | IC50 (HLA-DQ2.5 (human)) [µM] | IC50 (HLA-DQ2.2 (human)) [µM] | Molecule
14 | > 40 | 38.2 | > 40 | > 40 |  |  |  | GPPFSKQTEPVISQQ [SEQ ID NO: 186]
15 | > 40 | > 40 | > 40 | > 40 |  |  |  | QPPDSHQQHSPGSQQ [SEQ ID NO: 84]
16 | > 40 | 35.8 | > 40 | > 40 |  |  |  | QQPFPEQQRSQFSQQ [SEQ ID NO: 85]
17 | > 40 | 39.1 | > 40 | > 40 |  |  |  | QQPPFSHQRPPFSQQ [SEQ ID NO: 70]
18 |  |  |  | > 40 |  |  |  | QQPPSSEQEHSPPSQ [SEQ ID NO: 79]
19 | > 40 | > 40 | > 40 | > 40 |  |  |  | QSPFSRQQKSPFSQQ [SEQ ID NO: 80]
20 |  |  |  |  | 39.1 |  |  | QQPPFSHQRPPFSQQ [… (SEQ ID NO: 70)]
21 |  |  |  |  | 29.8 |  |  | QQPPFSKQEQQQPIL [… (SEQ ID NO: 71)]
22 |  |  |  |  | 31.9 |  | 39.8 | QPPSSEQQHSPPSQQ [… (SEQ ID NO: 81)]
23 |  |  |  |  | 1.14 | 0.158 |  | QPPFSEQQESPFSQQ [… (SEQ ID NO: 69)]
24 |  |  |  |  | 37.9 |  |  | QSPFPEQQEQHQQLQ [… (SEQ ID NO: 185)]
25 |  |  |  |  |  | 30.4 |  | QQPAFSRQHQPSLPQ [… (SEQ ID NO: 73)]
26 |  |  |  |  | 31.5 | 32.3 |  | QQPPFSEQEQPSSQQ [… (SEQ ID NO: 77)]
27 |  |  |  |  | 35.8 |  |  | QQPFPEQQRSQFSQQ [… (SEQ ID NO: 85)]
